Marks after values point to notes of the source that are not given here.
Assays:
[1] = Inhibition of heme-dependent lipid peroxidation of linoleic acid (TBA method); settings: pH 7.4, 37 °C
Description: The anti-lipid peroxidation activity was determined through the inhibition of heme-dependent lipid peroxidation. The peroxidation of sodium linoleate is induced from a mixture of heme and hydrogen peroxide, which produces free radicals from the side chains of amino acids. The assay is performed at pH 7.4 with a phosphate buffer, and the products of peroxidation are identified with the thiobarbituric acid method (TBA). In particular, malonic dialdehyde, a final product of lipid peroxidation, reacts with TBA and forms a colored product, whose absorbance is measured at 535 nm. […] Compounds 2ii and 2vi with low Clog P values are weak inhibitors of lipid peroxidation. It seems that the increase of volume of Ar^1, measured as molar refractivity MR (Ar^1), enhances IC50 values and reduces the inhibitory activity (2i and 2iii; and 2ii, 2iv and 2vi). For derivatives 2iv and 2v, the presence of an electron-acceptor, e.g., a chloro-substituent on the phenyl ring (Ar^2), diminishes the anti-lipid peroxidation activity.
Firstly, 0.4 mL of heme (50 μΜ), 0.25 mL of sodium linoleate (400 μΜ), 0.1 mL of the solutions of the tested compounds (concentrations varying from 10–100 μΜ in DMSO) and 0.25 mL of H2O2 (500 μΜ) were incubated for 10 min in 37 °C in a phosphate buffer (KH2PO4–KOH 50 mM, pH 7.4). The peroxidation products were identified with the reaction of thiobarbituric acid, by adding successively 0.5 mL of 40% trichloroacetic acid (TCA) and 0.5 mL of 2% of thiobarbituric acid (TBA). The addition was followed by stirring and heating at 90 °C for 20 min, and then, 1 mL of acetic acid and 1 mL of chloroform were added and the absorbance measured at 535 nm. IC50 values were determined.

[2] = Superoxide radical scavenging activity (non-enzymatic, PMS/NADH, NBT method); settings: 100 μM
Text: Superoxide anion radical is an active form of oxygen, and it is the product of the one-electron reduction of […] oxygen. Herein, superoxide radicals were formed by mixing phenazine methosulfate (PMS) with NADH and air-oxygen. The production of radicals was estimated with the nitroblue-tetrazolium method (NBT). From the tested pyrroles, Compounds 2i and 2iii were equipotent (57%) scavengers. […] In contrast, the dipole moment appeared to be important. The values of the dipole, as calculated by the program Spartan v.5.1.3.
The superoxide anion radicals were produced non-enzymatically by mixing phenazine methosulfate (PMS) with NADH and air-oxygen. The production of superoxide radicals was estimated with the nitroblue-tetrazolium (NBT) method with 3 μΜ PMS, 78 μΜ NADH and 25 μΜ NBT in 19 μΜ phosphate buffer pH 7.4. The absorbance was measured at 560 nm at room temperature. The tested compounds were added in the mixture 2 min before the addition of NADH [52].

[3] = tested on: carrageenan-induced rat paw edema; assay: Inhibition of rat paw edema induced by carrageenan; type: in vivo, Fischer 344 rats; settings: 0.01 mmol/kg body weight, intraperitoneally, 3.5 h; for inhibition in vivo at 10 µmol/kg: Rattus norvegicus, ip, read-out: CPE % inhibition of rat paw edema induced by carrageenan
Description: The pyrrolyl derivatives, as well as their precursor chalcones were tested in vivo for the inhibition of rat paw edema induced by carrageenan. […] […]. For Compounds 2i, 2iii, 2iv and 2v, we determined their ED50 values. […]. The finding supports the primary idea of this design.
Edema was induced in the right hind paw of Fischer 344 rats (150–200 g). In the study, both males and females were included, with the exemption of pregnant females. The animals, which have been bred in our laboratory, were housed under standard conditions and received a diet of commercial food pellets and water ad libitum during maintenance. One hour before the onset of the experiment, food and water were removed. The tested compounds (dose 0.01 mmol/kg body weight) were diluted in water with a few drops of Tween 80, and they were administered intraperitoneally simultaneously with the intradermal injection of 0.1 mL 2% of carrageenan in water. The animals were euthanatized 3.5 h after the carrageenan administration. The difference between the weight of injected and uninjected paws was calculated for each animal and was compared to control animals, which were treated with water. Indomethacin was used as a reference compound in 0.01 mmol/kg. The results were expressed as the percent inhibition of the edema (CPE %).

[4] = Interaction with the stable free radical DPPH (reducing activity); settings: for RA % (interaction with DPPH): DPPH 50 μM; for interaction with DPPH: 10 μM compound
Description: 2,2-Diphenyl-1-picrylhydrazyl (DPPH) is a lipophilic, free, stable radical, which absorbs at 517 nm (violet color). Upon reduction, decolorization is observed that is stoichiometric to the number of received electrons and is representative of the antioxidant ability of compounds. […] This interaction, which indicates their radical scavenging ability in an iron-free system, was measured at 100 and 1000 μM after 20 and 60 min, whereas the final concentration of DPPH was stable at 50 μΜ.
[…] The absorbance was measured at 517 nm after 20 and 60 min at room temperature.

COX-2 = molecular target: T1, COX-2 (Homo sapiens, UniProt P35354); assay: Inhibition of cycloxygenase-2 (colorimetric TMPD assay)
T1 sequence (P35354 18-604): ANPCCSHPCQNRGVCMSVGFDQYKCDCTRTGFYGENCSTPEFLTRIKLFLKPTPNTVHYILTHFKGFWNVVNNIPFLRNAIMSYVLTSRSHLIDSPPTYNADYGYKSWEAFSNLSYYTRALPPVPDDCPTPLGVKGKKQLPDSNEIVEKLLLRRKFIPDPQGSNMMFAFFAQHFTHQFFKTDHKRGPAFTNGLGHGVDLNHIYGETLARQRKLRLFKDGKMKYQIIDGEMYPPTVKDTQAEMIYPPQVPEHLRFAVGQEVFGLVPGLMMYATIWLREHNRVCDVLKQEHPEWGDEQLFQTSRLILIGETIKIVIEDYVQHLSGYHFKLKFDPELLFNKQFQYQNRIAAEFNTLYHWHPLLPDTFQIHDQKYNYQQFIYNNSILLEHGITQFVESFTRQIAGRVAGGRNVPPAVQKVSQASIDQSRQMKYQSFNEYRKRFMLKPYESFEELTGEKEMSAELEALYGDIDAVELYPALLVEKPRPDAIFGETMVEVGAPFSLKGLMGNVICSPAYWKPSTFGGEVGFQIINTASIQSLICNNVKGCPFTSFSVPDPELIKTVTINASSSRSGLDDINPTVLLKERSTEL
Description: The inhibition of COX-2, as a peroxidase, was determined by a colorimetric assay with the oxidation of N,N,N′,N′-tetramethyl-p-phenylenediamine (TMPD).
COX-2 inhibitory activity was determined by using arachidonic acid (AA) as a substrate in buffer (0.1 M Tris pH 8.5) and TMPD as a co-substrate.

[5] = Lipophilicity as RM values by reverse-phase thin layer chromatography (RPTLC); type: physicochemical; settings: methanol/water 75/25 v/v with ammonia drops
Text: Since lipophilicity is a significant physicochemical property determining the absorption, distribution, metabolism and excretion properties (ADME) of drugs, we attempted to determine experimentally the lipophilicity as RM values with reverse-phase thin layer chromatography (RPTLC). Lipophilicity was also theoretically calculated as Clog P values. According to the calculated Clog P values, the most lipophilic compounds were 2iii (6.37) and 2v (6.04). However, this observation was not supported by the RM values, since Compound 2iii presented very low lipophilicity (−0.061). Furthermore, the lipophilicity of Compound 2v could not be determined experimentally under the reported conditions. Attempts to correlate Clog P and RM values failed. From our results (Table 2), it can be concluded that RM values could not be used as a successful relative measure of the overall lipophilic/hydrophilic properties of these molecules. Tentatively, this can be attributed to the different nature of the hydrophilic and lipophilic phases in the two systems. Clog P refers to n-octanol/water, whereas RM in this case refers to methanol/water. Moreover, it is likely that pyrrole derivatives form hydrogen bonds within the hydrophilic phase.
Reverse-phase thin layer chromatography (RPTLC) was used for the determination of RM values. Silica gel plates were saturated with 5% v/v liquid paraffin in petroleum ether, and the mobile phase was methanol/water (75/25 v/v) with the addition of ammonia drops. Spots were detected under UV light. RM values were determined by the corresponding Rf values (from five measurements for each compound) using the equation [43]: RM = log[(1/Rf) − 1](1)

interleukin-6 (IL-6) = molecular target: T2, interleukin-6 (IL-6) (Mus musculus, UniProt P08505); assay: Inhibition of interleukin-6 (immunometric double antibody sandwich EIA); type: biochemical; settings: compound 10 μM; IL-6 1500 pg/mL
T2 construct: purchased Cayman Item No. 583371
T2 sequence (P08505 25-211): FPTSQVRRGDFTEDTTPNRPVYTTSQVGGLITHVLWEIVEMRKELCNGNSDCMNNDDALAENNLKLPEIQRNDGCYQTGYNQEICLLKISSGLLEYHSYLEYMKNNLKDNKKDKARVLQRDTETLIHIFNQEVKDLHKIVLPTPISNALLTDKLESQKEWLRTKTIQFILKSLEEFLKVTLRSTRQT
Description: The assay used for the inhibition of IL-6 is based on an immunometric double antibody method (sandwich technique). […] Both compounds gave satisfactory biological responses, both in high and in low concentrations of IL-6 (Table 8).
The method was based on an immunometric double antibody sandwich technique. Each well of the microwell plate was coated with a specific for mouse IL-6 rat monoclonal antibody. Tested compounds at 10 μΜ and standards were incubated in the wells, and after rinsing, a second monoclonal antibody was added, which was conjugated with biotin and detected the captured IL-6. The recognition of double antibody sandwiches was done with HRP-conjugated streptavidin. The concentration of IL-6 was determined by measuring the enzymatic activity of HRP using the chromogenic substrate TMB (3,3′,5,5′-tetramethylbenzidine). The absorbance of the reaction product was measured at 450 nm, and the intensity of the color was directly proportional to the amount of bound HRP-streptavidin conjugate, which was proportional to the concentration of IL-6.

| SMILES | melting point [°C] | inhibition in vivo at 10 µmol/kg [3] [%] | RA % (interaction with DPPH) ([4]; 100 μM compound, 20 min) [%] | RA % (interaction with DPPH) ([4]; 100 μM compound, 60 min) [%] | RA % (interaction with DPPH) ([4]; 1000 μM compound, 20 min) [%] | further results |
| --- | --- | --- | --- | --- | --- | --- |
| O=C(O)/C=C/c1ccc(O)c(O)c1 [Caffeic acid, reference compound] | – | – | – | – | – | IC50 ([1]; read-out: LP IC50 (inhibition of heme-dependent lipid peroxidation of linoleic acid)): 6 µM; O2^•− % superoxide radical scavenging activity [2]: 86.1% |
| O=C(C=Cc1cccc(Oc2ccccc2)c1)c1cccs1 [Compound 1i, 3-(3-Phenoxyphenyl)-1-(thien-2-yl)prop-2-en-1-one] | 48 to 50 | 41 | 43 | 2 | 5 | – |
| CN(C)c1ccc(C=CC=CC(=O)c2ccccc2)cc1 [Compound 1ii, 5-[4-(Dimethylamino)phenyl]-1-phenylpenta-2,4-dien-1-one] | – | 69 | 31 | 13 | 38 | RA % (interaction with DPPH) ([4]; 1000 μM compound, 60 min): 42% |
| O=C(C=Cc1ccc(OCc2ccc(Br)cc2)cc1)c1cccs1 [Compound 1iii, 3-{4-[(4-Bromobenzyl)oxy]phenyl}-1-(thien-2-yl)prop-2-en-1-one] | 141 to 143 | 86 | – | – | – | – |
| O=C(C=Cc1cccc2ccccc12)c1ccccc1 [Compound 1iv, 3-(Naphth-1-yl)-1-phenylprop-2-en-1-one] | – | 40 | – | – | – | – |
| O=C(C=Cc1cccc2ccccc12)c1ccc(Cl)cc1 [Compound 1v, 3-(Naphth-1-yl)-1-(4-chloro)phenylprop-2-en-1-one] | – | – | – | – | – | CPE % inhibition of rat paw edema induced by carrageenan [3]: 44 ^d % |
| O=C(C=Cc1ccc2[nH]ccc2c1)c1ccccc1 [Compound 1vi, 3-(1H-Indol-5-yl)-1-phenylprop-2-en-1-one] | – | 42 | – | – | – | – |
| CN(C)c1ccc(/C=C/c2c[nH]cc2C(=O)c2ccccc2)cc1 [Compound 2ii, (E)-{4-[4-(Dimethylamino)styryl]-1H-pyrrol-3-yl}(phenyl)methanone] | 219 to 220 | 89 | 86 | 88 | 99 | inhibition at 100 µM (COX-2; read-out: COX-2 % inhibition): 47%; interaction with DPPH ([4]; 20 min): 35%; interaction with DPPH ([4]; 60 min): 40%; RA % (interaction with DPPH) ([4]; 1000 μM compound, 60 min): 96%; LP IC50 (inhibition of heme-dependent lipid peroxidation of linoleic acid) [1]: inactive; RM [5]: 0.073 |
| O=C(c1ccccc1)c1c[nH]cc1-c1ccc2[nH]ccc2c1 [Compound 2vi, [4-(1H-Indol-5-yl)-1H-pyrrol-3-yl](phenyl)methanone] | 247 to 248 | – | – | – | – | COX-2 % inhibition (COX-2; 100 μM): inactive; LP IC50 (inhibition of heme-dependent lipid peroxidation of linoleic acid) [1]: inactive; O2^•− % superoxide radical scavenging activity [2]: 86%; RM [5]: −0.685 |
| COc1ccc2c(c1)c(CC(=O)O)c(C)n2C(=O)c1ccc(Cl)cc1 [Indomethacin, reference compound] | – | 53 | – | – | – | inhibition at 10 µM (interleukin-6 (IL-6)): 100% |
| CC(Cc1ccc(O)c(O)c1)C(C)Cc1ccc(O)c(O)c1 (stereo not drawn) [NDGA, nordihydroguaiaretic acid, reference compound] | – | – | 81 | 83 | 96 | RA % (interaction with DPPH) ([4]; 1000 μM compound, 60 min): 96% |

Source: publication PMC6332026, “Synthesis and Pharmacochemistry of New Pleiotropic Pyrrolyl Derivatives” (Molecules, 2015)
